Test results reported in article PMC9146423, “Discovery of Nitro-azolo[1,5-a]pyrimidines with Anti-Inflammatory and Protective Activity against LPS-Induced Acute Lung Injury” (Pharmaceuticals, 2022).
Where a name gives a salt, the structure may show the parent alone.

Key:
[1] = system: LPS-stimulated peritoneal macrophages of C57bl/6j mice; test: Cell viability of LPS-stimulated macrophages, MTT test; assay type: cell-based; settings: 100 μM
Experimental: (§1) Peritoneal macrophages (PM) were isolated from the peritoneal exudate of 30 male C57bl/6j mice. To accumulate PM, 1 mL of 3% peptone solution was injected intraperitoneally. After 3 days, the mice were euthanized by cervical dislocation. Cells of peritoneal exudate were obtained by aseptic washing of the abdominal cavity with 5 mL of sterile Hanks’s solution (+4–6 °C) without calcium and magnesium ions. The total number and viability of cells were assessed in a Goryaev counting chamber (Russia) with a 0.4% trypan blue staining (Sigma-Aldrich, St. Louis, MO, USA). The cell concentration was adjusted to 1.0 × 10^6 cells/mL in DMEM (Gibco) supplemented with 2 mM L-glutamine (Gibco, Waltham, MA, USA), 10% heat-inactivated fetal bovine serum (BioClot, Bavaria, Germany), 100 U/mL penicillin, and […] streptomycin (Gibco) and plated 200 μL/well in 96-well transparent plates (SPL Life Sciences Co., Ltd., Pocheon-si, Korea). After 2 h at 37 °C in a humidified atmosphere with 5% CO2, the wells were washed to remove non-adherent cells. After 24 h of incubation, 20 μL of the supernatants were substituted with 20 μL of solutions of test compounds, followed by E. coli O127:B8 LPS (100 ng/mL final concentration) after 30 min. The experiments were run in 3 independent replicates.
The activity of lactate dehydrogenase (LDH) in a cell culture medium served as a marker of membrane permeability and cell death. Aliquotes of supernatants were taken after 24 h of inoculation with test compounds, mixed with 250 μL of […] NADH solution in 54 mM phosphate-buffered saline (pH 7.5). Then, 25 μL of a 6.48 mM pyruvate solution was added to the mixture. The optical density was followed at a wavelength of 340 nm for 20 min. The MTT-test was performed 24 h after incubations of cells with tested compounds. Briefly, 20 μL of MTT solution was added to each well, incubated at 37 °C in a humidified atmosphere containing 5% CO2 for 4 h. The culture medium was removed, the cells were lysed, and formazan crystals were dissolved in 150 μL DMSO. The plates were shaken at room temperature for 10 min, and the optical density was measured in a microplate reader Infinite M200 PRO (Tecan, Grödig, Austria) at a wavelength of 565 nm.

[2] = system: LPS-stimulated peritoneal macrophages of C57bl/6j mice; test: Inhibition of LPS-induced NO synthesis (nitrite accumulation, Griess reagent) in peritoneal macrophages; assay type: cell-based, mouse; settings: 100 μM; for inhibition at 100 µM: Mus musculus, Peritoneal macrophage, 22 h, read-out: Inhibition of NO Synthesis vs. LPS Control; for inhibition at 100 µM / Inhibition of NO Synthesis vs. LPS Control: m ± SD
Experimental: as §1
The accumulation of the nitrite anion (a stable end product of NO decomposition produced by iNOS) in supernatants was determined using a standard Griess reagent. Briefly, 50 μL of supernatants were collected 22 h after incubation of PM, and the test and control compounds were mixed with 50 μL of 1% […] in 2.5% H3PO4 and 50 μL of 0.1% N-(1-naphthyl) ethylenediamine in 2.5% H3PO4. After incubation at 23 °C for 10 min in an orbital shaker, the optical density was determined at a wavelength of 550 nm with a microplate reader Infinite M200 PRO (Tecan, Grödig, Austria).

C57BL/6J mice = test: LPS-induced acute lung injury in mice; assay type: in vivo, mouse
Experimental: The randomization of C57bl/6j mice into experimental and control groups was based on body weight and behavioral activity assessed in an open field test 24 h before the start of the experiment. The next day, mice were treated with vehicle or test compounds 1 h before intratracheal instillation of LPS solution in sterile saline.
The randomization of C57BL/6J mice was performed by body weight and motor activity in an open field test. Dexamethasone (5 mg/kg) and 9g (30 mg/kg) were administered intraperitoneally in 10 mL/kg sterile saline. The control animals received an equal volume of the vehicle. After 1 h, the mice were anesthetized with isoflurane inhalation until their breathing rate was decreased. The mice were suspended by the front incisors on an inclined surgical table, the tongue was pulled out with narrow curved tweezers, and 1 mg/mL of E. coli O127:B8 LPS (Sigma-Aldrich, St. Louis, MO, USA) in 1 mL/kg sterile saline was injected into the back of the oropharynx. Intact control animals received an equal volume of sterile saline similarly.
The animals were placed in the center of a round open field with an arena of 44 cm diameter and 32 cm wall height under 300 lux lighting. During 5 min of observation, horizontal motor activity, vertical motor activity, time spent in the central part, the number of exits to the central part, and exploratory activity parameters were recorded. Body temperature was determined rectally.
The mice were anesthetized with 500 mg/kg chloral hydrate (Sigma-Aldrich, St. Louis, MO, USA) intraperitoneally 24 h after LPS administration. Blood was taken by intracardiac puncture in test tubes with heparin. The blood samples were centrifuged at 1000 g and 4 °C for 15 min on a 2–16PK centrifuge (Sigma, Germany), and plasma was separated and stored at −80 °C until the assay. Thoracotomy was performed, the ligature was applied to the left bronchus and the trachea was cannulated with a 20 G needle. The right lung was washed twice with 0.7 mL of warm sterile saline. After combining aliquots, the bronchoalveolar lavage (BAL) was centrifuged at 800 g and 4 °C for 10 min. The supernatant was separated and stored at −80 °C until the assay. The residual cell pellet was resuspended in 50 μL of PBS for further study. The left lung was washed in saline and placed in 10% buffered formalin for morphological evaluation.
The total number of leukocytes in heparinized blood was determined after staining with methylene blue in Goryaev’s counting chamber at ×100 magnification. Smears of blood and BAL cell pellets were air-dried, fixed according to May–Grunwald for 3 min, and stained according to Romanowsky–Giemsa. After 30 min, the slides were washed, air-dried, and examined with immersion objective (×1000 total magnification). On each slide, a total of at least 100 cells were calculated.
The concentration of total protein in BAL supernatants was determined spectrophotometrically with the pyrogallol red method, and the protein in the blood plasma was determined with the biuret method using commercial kits (Vital, Saint Petersburg, Russia) and bovine serum albumin as the standard. The lung permeability index was calculated as the protein concentration in the BAL to plasma ratio.
Morphological markers of inflammation in lung tissue were assessed in a semi-quantitative way on paraffin sections stained with hematoxylin and eosin. The sections were examined under a light microscope (Zeiss, Germany) by a double-blind method. The score of inflammation was determined as follows: 0—the presence of single inflammatory cells; 1—weak inflammation, inflammatory cells infiltrate no more than 10% of the lung tissue, including interalveolar cell partitions; 2—moderate inflammation, inflammatory cells infiltrate no more than 50% of the structures of the lung, but the interstitial tissue is identified; 3—severe inflammation, inflammatory cells densely infiltrate more than 50% of the lung tissue and airways.

[3] = system: peritoneal macrophages of C57bl/6j mice; test: Yeast phagocytosis assay and macrophage spreading; assay type: cell-based, mouse
Experimental: Next, we evaluated lead compound 9g for immunodepressant activity in parallel with the reference drug dexamethasone. Yeast phagocytosis was assessed by microscopic examination as the number of phagocytes per 100 macrophages and as the number of phagocytosed yeast cells in each phagocyte. Cell viability was assessed as lactate dehydrogenase activity in cell supernatants, which correlates with increased cell membrane permeability.
Peritoneal macrophages of C57bl/6j mice were cultured in a 24-well plate at a volume of 500 μL/well (1 × 10^5 cells/mL) for 24 h. Test compounds or DMSO were added to wells in triplicate followed by 50 μL of 1% yeast suspension, and the plates were incubated for 40 min. After 24 or 72 h, the medium was removed. The cells were fixed with May–Grunwald methanol dye and stained with Azur-Eosin in Romanovsky’s modification for 45 min at room temperature, washed, air-dried, and analyzed using a microscope Mikmed-6 (Russia), equipped with a digital camera. The study was performed in three technical replicates and two series; 100 macrophages were processed in each sample to count the captured yeast cells. Macrophage spreading was assessed as a number of pseudopodia.

[4] = 24 h after LPS, dexamethasone 5 mg/kg, 9g 30 mg/kg i.p.

Cc1nc2nnnn2c(NCC(O)CO)c1[N+](=O)[O-] (stereo not shown) [Compound 9e, 3-[(5-Methyl-6-nitrotetrazolo[1,5-a]pyrimidin-7-yl)-amino]propane-1,2-diol]
Cell Viability vs. LPS Control, MTT Test ([1]; male, C57bl/6j, mouse, 24 h): 94.98 ± 12.48% | inhibition at 100 µM [2]: 21.5 ± 2.74%

Cc1nc2nnnn2c(NCCO)c1[N+](=O)[O-] [Compound 9c, 2-[(5-Methyl-6-nitrotetrazolo[1,5-a]pyrimidin-7-yl)-amino]ethanol]
Cell Viability vs. LPS Control, MTT Test ([1]; male, C57bl/6j, mouse, 24 h): 109.0 ± 2.00% | inhibition at 100 µM [2]: 54.2 ± 11.5%

C#CCSc1nc2ncc([N+](=O)[O-])c(NCCc3ccc(O)cc3)n2n1 [Compound 10g, 4-{2-[(6-Nitro-2-(prop-2-yn-1-ylsulfanyl)[1,2,4]triazolo[1,5-a]pyrimidin-7-yl)amino]ethyl}phenol]
Cell Viability vs. LPS Control, MTT Test ([1]; male, C57bl/6j, mouse, 24 h): 30.9 ± 7.7 % | inhibition at 100 µM [2]: 28.5 ± 3.21%

Cc1nc2nnnn2c(NCCCO)c1[N+](=O)[O-] [Compound 9d, 3-[(5-Methyl-6-nitrotetrazolo[1,5-a]pyrimidin-7-yl)-amino]propanol]
Cell Viability vs. LPS Control, MTT Test ([1]; male, C57bl/6j, mouse, 24 h): 116.6 ± 8.97% | inhibition at 100 µM [2]: 40.3 ± 5.14%

Cc1nc2nnnn2c(NC(C)C)c1[N+](=O)[O-] [Compound 9a, N-Isopropyl-5-methyl-6-nitrotetrazolo[1,5-a]pyrimidin-7-amine]
Cell Viability vs. LPS Control, MTT Test ([1]; male, C57bl/6j, mouse, 24 h): 73.47 ± 12.07% | inhibition at 100 µM [2]: 47.7 ± 6.98%

Cc1[nH]c2nc(-c3ccc([N+](=O)[O-])o3)nn2c(=O)c1[N+](=O)[O-] [Compound 13, 2-(5-Nitrofur-2-yl)-5-methyl-6-nitro-1,2,4-triazolo[1,5-a]pyrimidin-7-one aminoguanidinium salt]
Cell Viability vs. LPS Control, MTT Test ([1]; m ± SD): 96.97 ± 7.18% | Inhibition of nitric oxide synthesis (in words) [2]: comparable to that of the tetrazolopyrimidine series | Inhibition of NO Synthesis vs. LPS Control [2]: 58.97 ± 7.07 %

Cc1nc2nnnn2c(NCCc2ccc(Cl)cc2)c1[N+](=O)[O-] [Compound 9f, N-[2-(4-Chlorophenyl)ethyl]-5-methyl-6-nitrotetrazolo-[1,5-a]pyrimidin-7-amine]
Cell Viability vs. LPS Control, MTT Test ([1]; male, C57bl/6j, mouse, 24 h): 102.67 ± 6.35% | inhibition at 100 µM [2]: 35.8 ± 4.45%

Cc1[nH]c2nc(-c3ccc([N+](=O)[O-])o3)nn2c(=O)c1[N+](=O)[O-] [Compound 14, 2-(5-Nitrofur-2-yl)-5-methyl-6-nitro-1,2,4-triazolo[1,5-a]pyrimidin-7-one guanidinium salt]
Cell Viability vs. LPS Control, MTT Test ([1]; m ± SD): 111.95 ± 8.67% | Inhibition of nitric oxide synthesis (in words) [2]: did not demonstrate inhibition of nitric oxide synthesis | Inhibition of NO Synthesis vs. LPS Control [2]: 16.09 ± 5.78%

C#CCSc1nc2ncc([N+](=O)[O-])c(NCCc3ccc(Cl)cc3)n2n1 [Compound 10f, N-(4-Chlorophenethyl)-6-nitro-2-(prop-2-yn-1-yl-sulfanyl)[1,2,4]triazolo[1,5-a]pyrimidin-7-amine]
Cell Viability vs. LPS Control, MTT Test ([1]; male, C57bl/6j, mouse, 24 h): 38.37 ± 6.89 % | inhibition at 100 µM [2]: 50.6 ± 1.27%

Cc1nc2nnnn2c(NC(C)(C)C)c1[N+](=O)[O-] [Compound 9b, N-Tert-Butyl-5-methyl-6-nitrotetrazolo[1,5-a]pyrimidin-7-amine]
Cell Viability vs. LPS Control, MTT Test ([1]; male, C57bl/6j, mouse, 24 h): 104.9 ± 5.87% | inhibition at 100 µM [2]: 37 ± 3.25%

C[C@@H]1C[C@H]2[C@@H]3CCC4=CC(=O)C=C[C@]4(C)[C@@]3(F)[C@@H](O)C[C@]2(C)[C@@]1(O)C(=O)CO [Dexamethasone, reference compound]
Cell Viability vs. LPS Control, MTT Test ([1]; male, C57bl/6j, mouse, 24 h): 104.21 ± 2.18% | Blood leukocyte subpopulations (C57BL/6J mice; 24 h after LPS): normalized leukocyte subpopulations to the values of intact animals | CD68+ cells in lung tissue, immunostaining (C57BL/6J mice; 24 h after LPS): rarely detected | LPS-induced lung lesions, histologic scoring (hemorrhage and neutrophil infiltration) (C57BL/6J mice; 24 h after LPS, H&E, semi-quantitative): significantly ameliorated | Blood plasma IL-6 level (C57BL/6J mice; [4]): normalized the blood plasma IL-6 level | Permeability of pulmonary vessels (lung permeability index) (C57BL/6J mice; [4]): prevent the increase in permeability of pulmonary vessels | Horizontal motor activity, open field test (C57BL/6J mice; 24 h after LPS, dexamethasone 5 mg/kg, 9g 30 mg/kg i.p. 1 h before LPS): significant improvement | Segmented neutrophils count in BAL (in words) (C57BL/6J mice; 24 h after LPS, monocytes in BAL increased): significantly decreased the segmented neutrophils count | Spleen mass and lymphocyte content (markers of immunodepression) (C57BL/6J mice; LPS-treated mice, dexamethasone 5 mg/kg, 9g 30 mg/kg i.p.): significantly reduced | LPS-induced hypothermia (C57BL/6J mice; body temperature determined rectally): attenuated LPS-induced hypothermia | Segmented neutrophils, share of BAL cells (C57BL/6J mice; bronchoalveolar lavage 24 h after LPS, dexamethasone 5 mg/kg, 9g 30 mg/kg i.p.): 22.5% | Number of center entries and time in the center, open field test (C57BL/6J mice; dexamethasone 5 mg/kg, 9g 30 mg/kg i.p.): restored the number of center entries and time in the center to intact levels | Suppression of phagocytosis ([3]; after 24-h of incubation, data not shown): significantly suppressed phagocytosis | Decrease of the mean number of phagocytosed yeast cells ([3]; after 72 h of incubation): 59% | Inhibition of NO Synthesis vs. LPS Control [2]: 90.91 ± 5.53 %
